According to publication PMC1764428, “Secretion and properties of a hybrid Kluyveromyces lactis-Aspergillus niger β-galactosidase” (Microbial Cell Factories, 2006):

How the values were obtained:
[1] = test system: T1, hybrid protein LAC4-LACA-KpnI; experiment: D-galactose release by coupled galactose dehydrogenase / NADH kit at […] nm, Lineweaver-Burk; assay type: biochemical, Kluyveromyces lactis;Aspergillus niger; conditions: crude extract (60 μg protein); lactose 5-160 mM
T1 construct: single-chain fusion: K. lactis LAC4 without its 297 C-terminal residues (fifth domain), replaced by 274 C-terminal residues of A. niger LACA (from pVK1.1) at KpnI site; expressed in K. lactis MW190-9B; crude extract

[2] = test system: T1, hybrid protein LAC4-LACA-KpnI; experiment: o-nitrophenol release, Lineweaver-Burk; assay type: biochemical, Kluyveromyces lactis;Aspergillus niger; conditions: crude extract (30 μg protein); buffer Z with 1.6 mM MgSO4; ONPG 2-12 mM

## OC[C@H]1O[C@@H](O[C@H]2[C@H](O)[C@@H](O)C(O)O[C@@H]2CO)[C@H](O)[C@@H](O)[C@H]1O (some centres unmarked) [lactose]
[1]
  Km: 8.7 mM

## O=[N+]([O-])c1ccccc1O[C@@H]1O[C@H](CO)[C@H](O)[C@H](O)[C@H]1O [ONPG]
[2]
  Km: 0.8 mM
